Structures are written as SMILES.

Usually IC50 stands for the midpoint of a concentration-inhibition curve. As a reminder, the Tmax is the time from dosing to the highest level. The term half-life denotes the time needed for the level to fall by half in the phase considered. As usually defined, the Cmax is the peak of the concentration-time curve. As a reminder, the AUC(0-t) is exposure summed from dosing to a finite time, without extrapolation to infinity. High values mean high exposure, low ones low exposure.

One series has as its system AChE. To be noted: read-out: IC50, inhibition of AChE; in vitro; cited from earlier work.
The subject of a further series is BChE. As to conditions: read-out: IC50, inhibition of BChE; in vitro; cited from earlier work.
A further series deals with APP/PS1 transgenic mice. As to conditions: cited from earlier work.
Series [1] can be described thus: plasma pharmacokinetics after oral and intravenous administration. The class given is in vivo, Sprague-Dawley (SD) rats. As to conditions: both, Sprague-Dawley, rat.
Series [2] in a line: cumulative excretion in bile, urine and feces. Type of series: in vivo, Sprague-Dawley (SD) rats. As to conditions: oral 100 mg/kg.
Another series concerns the target CYP2D6 (Homo sapiens, UniProt P10635). Kind of series: metabolism in recombinant human CYP450 enzymes. Type of series: in vitro ADME. To be noted: DL0410 10 µM; recombinant CYP1A2, CYP2C9, CYP2D6, CYP3A4; 37°C, 2 h.
The nature of series [3]: concentration in entorhinal cortex and hippocampus after oral administration. The class given is in vivo, Sprague-Dawley (SD) rats.
Series [4] concerns Aβ1-42-induced amnesia in mice. To be noted: cited from earlier work.

CYP2D6, sequence (P10635 whole entry): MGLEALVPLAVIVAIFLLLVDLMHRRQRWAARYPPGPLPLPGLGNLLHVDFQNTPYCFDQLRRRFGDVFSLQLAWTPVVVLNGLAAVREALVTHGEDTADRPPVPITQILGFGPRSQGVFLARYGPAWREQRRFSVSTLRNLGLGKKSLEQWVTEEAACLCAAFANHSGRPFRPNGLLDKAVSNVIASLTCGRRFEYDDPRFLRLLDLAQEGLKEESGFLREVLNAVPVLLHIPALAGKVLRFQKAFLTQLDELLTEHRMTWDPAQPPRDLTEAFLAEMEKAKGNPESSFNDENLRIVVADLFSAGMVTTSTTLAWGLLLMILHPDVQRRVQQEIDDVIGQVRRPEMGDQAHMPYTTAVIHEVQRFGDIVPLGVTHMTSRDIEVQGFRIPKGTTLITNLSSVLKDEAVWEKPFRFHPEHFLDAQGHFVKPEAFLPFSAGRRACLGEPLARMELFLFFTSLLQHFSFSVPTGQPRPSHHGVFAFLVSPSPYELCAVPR

In the case of `Cl.Cl.O=C(CCN1CCCCC1)c1ccc(-c2ccc(C(=O)CCN3CCCCC3)cc2)cc1` [DL0410, 1,1′-([1,1′-biphenyl]-4,4′-diyl)bis(3-(piperidin-1-yl)propan-1-one) dihydrochloride], the half-inhibitory concentration (IC50) in the series on AChE is 286 ± 4 nM; with BChE it was 3960 ± 99 nM. For the same molecule, the “improvement of memory deficits” value in the series with APP/PS1 transgenic mice is on record as “improve memory deficits in APP/PS1 transgenic mice”. Further, the time to peak (Tmax) was roughly 0.75 h in series [1]; roughly 6 h in series [3] (both, Sprague-Dawley, rat, entorhinal cortex and hippocampus, po, 100 mg/kg). The molecule also displayed a half-life in series [1] of 6.05 to 8.23 h. Also, the Cmax in series [1] (25 mg/kg) amounted to 21.5 ± 3.46 ng/mL; in series [1] (50 mg/kg), 56.1 ± 4.01 ng/mL; in series [1] (100 mg/kg), 196 ± 46.8 ng/mL; in series [3] (both, Sprague-Dawley, rat, entorhinal cortex, po, 100 mg/kg) it was 46.2 ± 13.2 ng/mL; in series [3] (both, Sprague-Dawley, rat, hippocampus, po, 100 mg/kg) it was 50.3 ± 6.92 ng/mL. In series [1] (50 mg/kg), this molecule had an AUC(0-t) of 239 ± 63 ng·h/mL. Also, in series [2] (rat bile, for 36 h), the “accumulated excretion in bile” value is reported as 0.010 % of the dose. Also, in series [2] (rat feces), the cumulative fecal excretion is 34.71%. Moreover, the cumulative urinary excretion in series [2] (rat urine, in 72 h) was 0.086 % of the dose. In addition, the “CYP450 isoform involved in the reduction reaction” value at CYP2D6 was “CYP2D6 was identified to be involved in the reduction of the carbonyl group”. Further, the “crossing of the blood-brain barrier” value in series [3] (rats, oral 100 mg/kg, detectable level in EC and HIP) was “able to cross the blood-brain barrier”. Further, the “improvement of Aβ1-42-induced amnesia” value in series [4] is reported as “improve memory deficits”.

The values above are taken from article PMC6625456 (Molecular Medicine Reports, 2019).
